Measured values: US20250140406A1, “CLASSIFYING TUMORS AND PREDICTING RESPONSIVENESS” (Oncocyte Corporation, priority 2022, published 2025)
Like-named read-outs stand apart in the source and are kept apart here.

Experiments:
[1] = system: cancer cell lines classified IM, MSL, M; test: PRISM screen compound sensitivity correlated with IM, MSL and M subtype of cell lines (101 gene signature); assay type: cell-based; details: for TNBCType train: 101 gene signature
[2] = system: cancer cell lines, DetermaIO classes; test: Association of PRISM compound sensitivity with DetermaIO (DTIO) cell line classes; assay type: cell-based
[3] = correlation of PRISM compound sensitivity with IM subtype correlation, test cell set
[4] = correlation of PRISM compound sensitivity with M subtype correlation, test cell set
[5] = correlation of PRISM compound sensitivity with MSL subtype correlation, test cell set
[6] = correlation of PRISM compound sensitivity with DTIO, test cell set
[7] = correlation of PRISM compound sensitivity with DTIO, training cell set
[8] = correlation of PRISM compound sensitivity with IM subtype correlation, test cell set (188 cell lines)
[9] = correlation of PRISM compound sensitivity with M subtype correlation, test cell set (188 cell lines)
[10] = correlation of PRISM compound sensitivity with MSL subtype correlation, test cell set (188 cell lines)
[11] = subtype (IM, MSL or M) assigned to the compound by negative correlation of PRISM sensitivity with subtype, training cell set (371 cell lines)
[12] = correlation of PRISM compound sensitivity with DTIO (DetermaIO), test cell set (188 cell lines)
[13] = correlation of PRISM compound sensitivity with DTIO (DetermaIO), training cell set (371 cell lines)
[14] = subtype (IM, MSL or M) with which compound sensitivity is negatively correlated, training cell set (371 cell lines)
[15] = subtype (IM, MSL or M) with which PRISM compound sensitivity is negatively correlated, training cell set

Row | SMILES | DTIO Corr test [2, 6] | DTIO Corr train [2, 7] | IM Corr test [1, 8] | M Corr test [1, 9] | MSL Corr test [1, 10] | other results
1 | O=C(O)Cc1cccnc1C(=O)O [homoquinolinic-acid] | −0.0252 | −0.1121 | – | – | – | IM Corr test [1, 3]: −0.08778; M Corr test [1, 4]: 0.05663; MSL Corr test [1, 5]: 0.003236
2 | O=C(O)CCCN1C(=O)c2cccc3cccc(c23)C1=O [isodibut] | – | – | −0.04572 | −0.03436 | −0.1039 | TNBCType train [1, 11]: MSL; DTIO Corr test [2, 12]: −0.0652; DTIO Corr train [2, 13]: 0.05075
3 | CNC(C)CCC=C(C)C.CNC(C)CCC=C(C)C.O=C(O)[C@@H](O)[C@H](O)[C@H](O)[C@@H](O)C(=O)O [isometheptene-mucate] | −0.04443 | −0.1179 | −0.09289 | 0.05313 | 0.118 | –
4 | C[C@]12CC[C@H]3[C@@H](CC[C@]4(O)C[C@@H](O)CC[C@]34C=O)[C@@]1(O)CC[C@@H]2C1=CC(=O)OC1 [k-strophanthidin] | −0.03307 | −0.01124 | −0.06974 | −0.03165 | −0.1099 | TNBCType train [1, 14]: MSL
5 | O=C(CCn1cnc2c(=O)[nH]cnc21)Nc1ccc(C(=O)O)cc1 [leteprinim] | 0.02507 | −0.08293 | – | – | – | IM Corr test [1, 3]: 0.08575; M Corr test [1, 4]: −0.1262; MSL Corr test [1, 5]: −0.09795; TNBCType train [1, 15]: MSL
6 | N=C(N)NC(=N)Nc1cccc(Cl)c1 [m-Chlorophenylbiguanide] | −0.0968 | −0.09639 | – | – | – | IM Corr test [1, 3]: −0.148; M Corr test [1, 4]: 0.08655; MSL Corr test [1, 5]: 0.1129
7 | O=C(O)[C@H](O)[C@@H](O)[C@H](O[C@@H]1O[C@H](CO)[C@H](O)[C@H](O)[C@H]1O)[C@H](O)CO [maltobionic-acid] | 0.13 | 0.09859 | 0.1078 | −0.08169 | 0.03716 | –
8 | CCOC(=O)c1c(C)n(C)c2ccc(O)cc12 [mecarbinate] | −0.09259 | −0.07862 | – | – | – | IM Corr test [1, 3]: −0.08712; M Corr test [1, 4]: 0.04238; MSL Corr test [1, 5]: −0.08851
9 | CC(C)(CCCCCCCCCCC(C)(C)CC(=O)O)CC(=O)O [medica-16] | – | – | −0.06152 | 0.01613 | −0.1086 | TNBCType train [1, 11]: MSL; DTIO Corr test [2, 12]: 0.004343; DTIO Corr train [2, 13]: −0.05017
10 | [O-][n+]1cccc(CO)c1 [mepiroxol] | – | – | −0.07855 | 0.0253 | 0.01789 | DTIO Corr test [2, 12]: −0.08258; DTIO Corr train [2, 13]: −0.1082
11 | CC(C)(C)NCc1cc(Nc2ccnc3cc(Cl)ccc23)c2c(c1O)CCCC2.O=P(O)(O)O.O=P(O)(O)O [naphthoquine-phosphate] | 0.04517 | 0.03212 | −0.01598 | 0.03443 | −0.02275 | TNBCType train [1, 14]: MSL
12 | O=[N+]([O-])c1ccc([As](=O)(O)O)cc1 [nitarsone] | – | – | −0.01836 | 0.02346 | −0.02358 | TNBCType train [1, 11]: MSL; DTIO Corr test [2, 12]: −0.04129; DTIO Corr train [2, 13]: 0.03389
13 | C#C[C@]1(OC(=O)CCCCCC)CC[C@H]2[C@@H]3CCC4=CC(=O)CC[C@@H]4[C@H]3CC[C@@]21C [norethisterone-enanthate] | – | – | – | – | – | IM Corr test [1]: −0.05873; M Corr test [1]: 0.01774; MSL Corr test [1]: 0.1042; DTIO Corr test [2]: 0.009756; DTIO Corr train [2]: −0.1312
14 | COc1ccc(C2=N[C@@H](c3ccc(Cl)cc3)[C@@H](c3ccc(Cl)cc3)N2C(=O)N2CCNC(=O)C2)c(OC(C)C)c1 [nutlin-3] | 0.1503 | 0.1606 | 0.06852 | −0.07413 | 0.03536 | –
15 | C[N+](C)(C)CC#CCN1CCCC1=O [oxotremorine-m] | −0.1128 | −0.0669 | −0.08895 | 0.05992 | 0.09728 | –
16 | CC[C@H](C)[C@@H]1NC(=O)[C@H](Cc2ccc(O)cc2)NC(=O)[C@@H](N)CSSC[C@@H](C(=O)N2CCC[C@H]2C(=O)N[C@@H](CC(C)C)C(=O)NCC(N)=O)NC(=O)[C@H](CC(N)=O)NC(=O)[C@H](CCC(N)=O)NC1=O [oxytocin] | −0.07667 | 0.04167 | – | – | – | IM Corr test [1, 3]: −0.06688; M Corr test [1, 4]: 0.01789; MSL Corr test [1, 5]: −0.03975; TNBCType train [1, 15]: MSL

Row | SMILES | DTIO Corr test [2, 6] | DTIO Corr train [2, 7] | IM Corr test [1, 8] | M Corr test [1, 9] | MSL Corr test [1, 10] | other results
17 | CN1C(=O)C(N2CCCCC2)S/C1=C\C(=O)O (stereo not drawn) [ozolinone] | −0.09683 | 0.04306 | −0.1322 | −0.01029 | −0.06039 | TNBCType train [1, 14]: MSL
18 | COc1cc(/C=C/c2ccc(O)cc2)cc(OC)c1 [pterostilbene] | – | – | – | – | – | IM Corr test [1]: −0.08513; M Corr test [1]: 0.06063; MSL Corr test [1]: −0.05713; DTIO Corr test [2]: −0.06647; DTIO Corr train [2]: −0.0588
19 | CNC(=O)c1cnn(-c2nc(N)c3ncn([C@@H]4O[C@H](CO)[C@@H](O)[C@H]4O)c3n2)c1 [regadenoson] | −0.1015 | −0.1586 | −0.08832 | 0.02954 | −0.05759 | –
20 | COC(=O)CC[C@@H]1N=C(c2ccccn2)c2cc(Br)ccc2-n2c(C)cnc21 [remimazolam] | – | – | 0.03785 | −0.0431 | −0.1059 | TNBCType train [1, 11]: MSL; DTIO Corr test [2, 12]: −0.03395; DTIO Corr train [2, 13]: −0.02892
21 | COc1ccc([C@H]2CNC(=O)C2)cc1OC1CCCC1 [rolipram-S(+)] | – | – | −0.03939 | −0.06383 | −0.06426 | DTIO Corr test [2, 12]: −0.07222; DTIO Corr train [2, 13]: −0.1043
22 | C=C1CC[C@H](O)C/C1=C/C=C1\CCC[C@]2(C)[C@@H]([C@H](C)CC[C@@H](O)C(C)(C)O)CC[C@@H]12 [secalciferol] | −0.09515 | −0.06151 | −0.1254 | 0.07866 | −0.05502 | –
23 | C/C(=N\NC(=N)N)c1cc(NC(=O)CCCCCCCCC(=O)Nc2cc(/C(C)=N/NC(=N)N)cc(/C(C)=N/NC(=N)N)c2)cc(/C(C)=N/NC(=N)N)c1 [semapimod] | 0.207 | 0.01264 | – | – | – | IM Corr test [1, 3]: 0.1267; M Corr test [1, 4]: −0.09225; MSL Corr test [1, 5]: −0.0812; TNBCType train [1, 15]: MSL
24 | COc1ccc(-c2cc(=O)c3c(OC)c(OC)c(OC)c(OC)c3o2)cc1 [tangeritin] | −0.01838 | −0.09411 | – | – | – | IM Corr test [1, 3]: −0.06559; M Corr test [1, 4]: 0.04891; MSL Corr test [1, 5]: −0.06252
25 | c1cc2c(cc1C1CCCCC1)c1c3n2CCNC3CCC1 (stereo not drawn) [tetrindole] | −0.04907 | −0.09692 | −0.02376 | 0.06046 | 0.06072 | –
26 | CCN=C1N[C@@H]2[C@@H](O)[C@H](O)[C@@H](CO)O[C@@H]2S1 [thiamet-g] | 0.003014 | 0.08206 | – | – | – | IM Corr test [1, 3]: −0.00247; M Corr test [1, 4]: −0.01394; MSL Corr test [1, 5]: −0.01406; TNBCType train [1, 15]: MSL
27 | O=C(NCc1ccccc1)c1csc(Nc2ccncn2)n1 [thiazovivin] | 0.04845 | 0.03374 | 0.0391 | −0.1082 | −0.2135 | TNBCType train [1, 14]: MSL
28 | C[CH2][Hg][S]c1ccccc1C(=O)[O-].[Na+] [thiomersal] | – | – | 0.1417 | −0.2551 | −0.1237 | DTIO Corr test [2, 12]: 0.0287; DTIO Corr train [2, 13]: −0.05708; DTIO Corr test ([2]; correlation of compound sensitivity with DTIO, test set): 0.0287; DTIO Corr train ([2]; correlation of compound sensitivity with DTIO, training set): −0.05708
29 | COc1cc(C[C@@H]2NCCc3cc(O)c(O)cc32)cc(OC)c1OC [trimethoquinol] | −0.05537 | −0.0983 | −0.06802 | −0.00108 | −0.05303 | TNBCType train [1, 14]: MSL
30 | COc1cc2ncnc(Nc3cccc(Cl)c3)c2cc1OC [tyrphostin-AG-1478] | – | – | −0.09525 | 0.2259 | 0.3434 | DTIO Corr test [2, 12]: 0.02894; DTIO Corr train [2, 13]: −0.0761
31 | CN[C@H]1CN(c2ccc3c(=O)c(C(=O)O)cn(-c4nccs4)c3n2)C[C@@H]1OC [voreloxin] | 0.01495 | −0.04486 | – | – | – | IM Corr test [1, 3]: 0.02919; M Corr test [1, 4]: −0.09678; MSL Corr test [1, 5]: −0.06474; TNBCType train [1, 15]: MSL
32 | Cc1nn(C)c2c1C(c1cccc(Cl)c1)=NCCN2 [zometapine] | −0.08271 | 0.09146 | −0.1347 | 0.04602 | −0.04215 | TNBCType train [1, 14]: MSL
